Measured values from patent US8383639B2, “HIV integrase inhibitors” (priority 2009, dated 2013).

Tested on: recombinant NL-Rluc virus
Test: Inhibition of HIV replication (NL-RLuc pseudotype virus, luciferase)
Assay type: cell-based
Settings: Human immunodeficiency virus 1, read-out: Activity (EC50)

SMILES	EC50 [nM]
CC1(C)OCCn2c1nc(-c1ncc(Cc3ccc(F)cc3)[nH]1)c(O)c2=O [Example 1, 2-(5-(4-Fluorobenzyl)-1H-imidazol-2-yl)-3-hydroxy-9,9-dimethyl-6,7-dihydropyrimido[2,1-c][1,4]oxazin-4(9H)-one]	7
Cn1c(Cc2ccc(F)cc2)cnc1-c1nc2n(c(=O)c1O)CCOC2(C)C [Example 2, 2-(5-(4-Fluorobenzyl)-1-methyl-1H-imidazol-2-yl)-3-hydroxy-9,9-dimethyl-6,7-dihydropyrimido[2,1-c][1,4]oxazin-4(9H)-one]	10
CC1(C)OCCn2c1nc(-c1cn(Cc3ccc(F)cc3)cn1)c(O)c2=O [Example 3, 2-(1-(4-Fluorobenzyl)-1H-imidazol-4-yl)-3-hydroxy-9,9-dimethyl-6,7-dihydropyrimido[2,1-c][1,4]oxazin-4(9H)-one]	5
CC1(C)OCCn2c1nc(-c1nnc(Cc3ccc(F)cc3)[nH]1)c(O)c2=O [Example 4, 2-(5-(4-Fluorobenzyl)-4H-1,2,4-triazol-3-yl)-3-hydroxy-9,9-dimethyl-6,7-dihydropyrimido[2,1-c][1,4]oxazin-4(9H)-one]	51
CC1(C)OCCn2c1nc(-c1ncn(Cc3ccc(F)cc3)n1)c(O)c2=O [Example 5, 2-(1-(4-Fluorobenzyl)-1H-1,2,4-triazol-3-yl)-3-hydroxy-9,9-dimethyl-6,7-dihydropyrimido[2,1-c][1,4]oxazin-4(9H)-one]	7
Cn1c(Cc2ccc(F)cc2)nnc1-c1nc2n(c(=O)c1O)CCOC2(C)C [Example 6, 2-(5-(4-Fluorobenzyl)-4-methyl-4H-1,2,4-triazol-3-yl)-3-hydroxy-9,9-dimethyl-6,7-dihydropyrimido[2,1-c][1,4]oxazin-4(9H)-one]	141
CCOc1nc(-c2nc(Cc3ccc(F)cc3)no2)c(O)c(=O)n1C [Example 7, 2-Ethoxy-6-(3-(4-fluorobenzyl)-1,2,4-oxadiazol-5-yl)-5-hydroxy-3-methylpyrimidin-4(3H)-one]	31000
Cn1c(C2CCCC2)nc(-c2nc(Cc3ccc(F)cc3)no2)c(O)c1=O [Example 9, 2-Cyclopentyl-6-(3-(4-fluorobenzyl)-1,2,4-oxadiazol-5-yl)-5-hydroxy-3-methylpyrimidin-4(3H)-one]	22000
CC1(C)OCCn2c1nc(-c1ncc(Cc3ccc(F)cc3)s1)c(O)c2=O [Example 11, 2-(5-(4-Fluorobenzyl)thiazol-2-yl)-3-hydroxy-9,9-dimethyl-6,7-dihydropyrimido[2,1-c][1,4]oxazin-4(9H)-one]	14
CC1(C)OCCn2c1nc(-c1nnc(Cc3ccc(F)cc3)o1)c(O)c2=O [Example 12, 2-(5-(4-Fluorobenzyl)-1,3,4-oxadiazol-2-yl)-3-hydroxy-9,9-dimethyl-6,7-dihydropyrimido[2,1-c][1,4]oxazin-4(9H)-one]	8
